Reference: PubChem BioAssay (NCI)
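96-well plates; 48 h exposure; 5 concentrations. Endpoints by linear interpolation between flanking doses. Not reached: highest tested concentration assigned. TGI is the concentration that stops growth completely.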

Tests used:
Assay in all cases: NCI tumour cell line growth inhibition, 48 h
RXF 393 renal = system: RXF 393 renal
SW-620 colon = system: SW-620 colon
SF-268 CNS = system: SF-268 CNS
TK-10 renal = system: TK-10 renal
U251 CNS = system: U251 CNS
M14 melanoma = system: M14 melanoma
PC-3 prostate = system: PC-3 prostate
IGROV1 ovarian = system: IGROV1 ovarian
DU-145 prostate = system: DU-145 prostate
NCI-H460 lung = system: NCI-H460 lung
CCRF-CEM leukemia = system: CCRF-CEM leukemia
786-0 renal = system: 786-0 renal
RPMI-8226 leukemia = system: RPMI-8226 leukemia
SF-539 CNS = system: SF-539 CNS
HCT-116 colon = system: HCT-116 colon
K-562 leukemia = system: K-562 leukemia
EKVX NSCLC = system: EKVX NSCLC
UO-31 renal = system: UO-31 renal
HOP-92 NSCLC = system: HOP-92 NSCLC
UACC-62 melanoma = system: UACC-62 melanoma
SF-295 CNS = system: SF-295 CNS
HS 578T breast = system: HS 578T breast
NCI-H23 lung = system: NCI-H23 lung
A498 renal = system: A498 renal
SNB-75 CNS = system: SNB-75 CNS
MALME-3M melanoma = system: MALME-3M melanoma
COLO 205 colon = system: COLO 205 colon
HL-60(TB) leukemia = system: HL-60(TB) leukemia
SK-MEL-5 melanoma = system: SK-MEL-5 melanoma
T-47D breast = system: T-47D breast
MDA-MB-231 breast = system: MDA-MB-231 breast
HT29 colon = system: HT29 colon
SK-OV-3 ovarian = system: SK-OV-3 ovarian
NCI/ADR-RES ovarian = system: NCI/ADR-RES ovarian
SNB-19 CNS = system: SNB-19 CNS
CAKI-1 renal = system: CAKI-1 renal
SR leukemia = system: SR leukemia
MOLT-4 leukemia = system: MOLT-4 leukemia
NCI-H226 lung = system: NCI-H226 lung
A549 NSCLC = system: A549 NSCLC
OVCAR-4 ovarian = system: OVCAR-4 ovarian
UACC-257 melanoma = system: UACC-257 melanoma
OVCAR-3 ovarian = system: OVCAR-3 ovarian
SN12C renal = system: SN12C renal
LOX IMVI melanoma = system: LOX IMVI melanoma
MDA-MB-435 = system: MDA-MB-435
NCI-H522 lung = system: NCI-H522 lung
SK-MEL-2 melanoma = system: SK-MEL-2 melanoma
MCF7 breast = system: MCF7 breast
HOP-62 NSCLC = system: HOP-62 NSCLC
OVCAR-5 ovarian = system: OVCAR-5 ovarian
KM12 colon = system: KM12 colon

CCCCCCN1C(=O)CC(=O)N(CCCCCC)S1(=O)=O
TGI (RXF 393 renal): 34.1 µM
TGI (SW-620 colon): 41.9 µM
TGI (SF-268 CNS): 36.9 µM
TGI (TK-10 renal): 41.6 µM
TGI (U251 CNS): 33.1 µM
TGI (M14 melanoma): > 100 µM
TGI (PC-3 prostate): 60 µM
TGI (IGROV1 ovarian): 25.9 µM
TGI (DU-145 prostate): > 100 µM
TGI (NCI-H460 lung): > 100 µM
TGI (CCRF-CEM leukemia): 40.9 µM
TGI (786-0 renal): 35.8 µM
TGI (RPMI-8226 leukemia): 47.2 µM
TGI (SF-539 CNS): 41.9 µM
TGI (HCT-116 colon): > 100 µM
TGI (K-562 leukemia): > 100 µM
TGI (EKVX NSCLC): 41 µM
TGI (UO-31 renal): 3.46 µM
TGI (HOP-92 NSCLC): 25.6 µM
TGI (UACC-62 melanoma): 34.3 µM
TGI (SF-295 CNS): 35.9 µM
TGI (HS 578T breast): 45.9 µM
TGI (NCI-H23 lung): 75.2 µM
TGI (A498 renal): 27.8 µM
TGI (SNB-75 CNS): 32.7 µM
TGI (MALME-3M melanoma): 72.8 µM
TGI (COLO 205 colon): 34.6 µM
TGI (HL-60(TB) leukemia): 48.9 µM
TGI (SK-MEL-5 melanoma): 44.2 µM
TGI (T-47D breast): > 100 µM
TGI (MDA-MB-231 breast): 33.2 µM
TGI (HT29 colon): 46.8 µM
TGI (SK-OV-3 ovarian): 51.5 µM
TGI (NCI/ADR-RES ovarian): 49.5 µM
TGI (SNB-19 CNS): > 100 µM
TGI (CAKI-1 renal): 50.7 µM
TGI (SR leukemia): 61 µM
TGI (MOLT-4 leukemia): 51.6 µM
TGI (NCI-H226 lung): > 100 µM
TGI (A549 NSCLC): > 100 µM
TGI (OVCAR-4 ovarian): 41 µM
TGI (UACC-257 melanoma): > 100 µM
TGI (OVCAR-3 ovarian): 52.1 µM
TGI (SN12C renal): 37.1 µM
TGI (LOX IMVI melanoma): 36 µM
TGI (MDA-MB-435): 53.5 µM
TGI (NCI-H522 lung): 27.4 µM
TGI (SK-MEL-2 melanoma): 28.5 µM
TGI (MCF7 breast): > 100 µM
TGI (HOP-62 NSCLC): 35.9 µM
TGI (OVCAR-5 ovarian): 41.1 µM
TGI (KM12 colon): > 100 µM
